The values below come from US20130096149A1, “HETEROARYL COMPOUNDS AND COMPOSITIONS AS PROTEIN KINASE INHIBITORS” (NOVARTIS AG, priority 2010, published 2013).

Sequence of b-Raf(V600E) (P15056 whole entry V600E): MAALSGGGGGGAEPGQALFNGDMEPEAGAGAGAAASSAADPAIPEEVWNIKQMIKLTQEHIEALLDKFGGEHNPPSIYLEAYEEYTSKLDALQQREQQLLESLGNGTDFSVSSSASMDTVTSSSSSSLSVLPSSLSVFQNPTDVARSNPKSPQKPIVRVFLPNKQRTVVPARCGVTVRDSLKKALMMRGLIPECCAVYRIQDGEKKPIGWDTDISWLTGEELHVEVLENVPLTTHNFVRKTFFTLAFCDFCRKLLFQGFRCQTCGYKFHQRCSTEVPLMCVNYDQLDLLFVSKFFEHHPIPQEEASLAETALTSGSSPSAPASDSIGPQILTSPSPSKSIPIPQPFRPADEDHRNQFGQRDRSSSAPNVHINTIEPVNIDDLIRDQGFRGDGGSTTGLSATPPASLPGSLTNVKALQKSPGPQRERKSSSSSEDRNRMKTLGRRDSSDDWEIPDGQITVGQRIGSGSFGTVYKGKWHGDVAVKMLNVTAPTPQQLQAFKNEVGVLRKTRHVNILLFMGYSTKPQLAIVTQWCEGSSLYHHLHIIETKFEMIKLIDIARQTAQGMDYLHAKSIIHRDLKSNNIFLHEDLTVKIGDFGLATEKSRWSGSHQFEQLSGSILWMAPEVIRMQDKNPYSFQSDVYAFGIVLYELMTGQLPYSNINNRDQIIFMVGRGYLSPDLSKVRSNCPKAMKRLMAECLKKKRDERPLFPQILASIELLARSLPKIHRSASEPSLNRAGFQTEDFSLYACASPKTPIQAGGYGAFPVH

This assay has as its target b-Raf(V600E) (Homo sapiens, UniProt P15056, V600E). The experiment in a line: Raf/Mek Amplified Luminescence Proximity Homogeneous Assay (Alpha Screen). To be noted: b-Raf(V600E) approximately 4 pM; biotinylated Mek, kinase dead approximately 10 nM; ATP 10 μM; pre-incubation 60 minutes; reaction 3 hours at room temperature; read-out: mut-bRaf IC50. Format: biochemical. As for the experimental part: Raf/Mek Amplified Luminescence Proximity Homogeneous Assay
Assay buffer: 50 mM Tris, pH 7.5, 15 mM MgCl2, 0.01% Bovine Serum Albumin (BSA), 1 mM dithiothreitol (DTT) Stop buffer: 60 mM ethylenediaminetetraacetic acid (EDTA), 0.01% Tween® 20 Bead buffer: 50 mM Tris, pH 7.5, 0.01% Tween® 20 […]
biotinylated Mek, kinase dead
Alpha Screen detection kit (available from PerkinElmer™, #6760617R)
Anti phospho-MEK1/2 (available from Cell Signaling Technology, Inc. #9121) 384 well assay plates (White Greiner® plates, #781207) […]
b-Raf(V600E) approximately 4 pM […]
biotinylated Mek, Kinase dead approximately 10 nM
Pre-incubation time with compounds 60 minutes at room temperature
Reaction time 1 or 3 hours at room temperature
Raf and biotinylated Mek, kinase dead, were combined at 2× final concentrations in assay buffer (50 mM Tris, pH 7.5, 15 mM MgCl2, 0.01% BSA and 1 mM DTT) and dispensed 10 μl per well in assay plates (Greiner white 384 well assay plates #781207) containing 0.5 μl of 40× of a raf kinase inhibitor test compound diluted in 100% DMSO. The plate was incubated for 60 minutes at room temperature.
The Raf kinase activity reaction was started by the addition of 10 μL per well of 2×ATP diluted in assay buffer. After 3 hours (bRaf(V600E)) or 1 hour (c-Raf), the reactions were stopped with the addition of 10 μL of stop reagent (60 mM EDTA). Phosphorylated product was measured using a rabbit anti-p-MEK (Cell Signaling, #9121) antibody and the Alpha Screen IgG (ProteinA) detection Kit (PerkinElmer #6760617R), by the addition of 30 μL to the well of a mixture of the antibody (1:2000 dilution) and detection beads (1:2000 dilution of both beads) in bead buffer (50 mM Tris, pH 7.5, 0.01% Tween20). The additions were carried out under dark conditions to protect the detection beads from light. A lid was placed on top of the plate and incubated for 1 hour at room temperature, then the luminescence was read on a PerkinElmer Envision instrument. The concentration of each compound for 50% inhibition (IC50) was calculated by non-linear regression using XL Fit data analysis software.
For the compound `COCC(=O)N[C@@H](C)CNc1nccc(-c2oc(-c3ccc(F)cc3)nc2-c2cc(C)cc(NS(C)(=O)=O)c2Cl)n1` [Example 42], the half-inhibitory concentration (IC50) is 3100 pM.

Consider `CCCNc1nccc(-c2oc(C3CC3)nc2-c2cccc(NS(C)(=O)=O)c2Cl)n1` [Example 43], for which the IC50 came to 62000 pM.

In the case of `COC(=O)N[C@@H](C)CNc1nccc(-c2oc(C3CC3)nc2-c2cccc(NS(C)(=O)=O)c2Cl)n1` [Example 44], the IC50 turned out to be 1300 pM.

For `CS(=O)(=O)Nc1cccc(-c2nc(C3CC3)oc2-c2ccnc(N)n2)c1Cl` [Example 45], the concentration for half-maximal inhibition (IC50) amounted to 17000 pM.

As for `CS(=O)(=O)Nc1cccc(-c2nc(C3CC3)oc2-c2ccnc(NCCC#N)n2)c1Cl` [Example 46], the concentration for half-maximal inhibition (IC50) was found to be 950 pM.

Take `CCCS(=O)(=O)Nc1cc(Cl)cc(-c2nc(C(C)(C)C)sc2-c2ccnc(N)n2)c1Cl` [Example 47]: the IC50 worked out at 130 pM.

In the case of `CCCS(=O)(=O)Nc1cc(Cl)cc(-c2nc(C(C)(C)C)sc2-c2ccnc(NC[C@H](C)NC(=O)OC)n2)c1Cl` [Example 48], the half-maximal inhibitory concentration (IC50) is 700 pM.

For `COC(=O)N[C@@H](C)CNc1nccc(-c2sc(C(C)(C)C)nc2-c2cc(Cl)cc(NS(C)(=O)=O)c2Cl)n1` [Example 49], the concentration for half-maximal inhibition (IC50) stood at 400 pM.

As for `CCCS(=O)(=O)Nc1cc(Cl)cc(-c2nc(C3CC3)sc2-c2ccnc(N)n2)c1Cl` [Example 50], the IC50 was determined as 56 pM.

For `CCCS(=O)(=O)Nc1cc(Cl)cc(-c2nc(C3CC3)sc2-c2ccnc(NC)n2)c1Cl` [Example 51], the IC50 worked out at 80 pM.

As to `CCCS(=O)(=O)Nc1cc(Cl)cc(-c2nc(C3CC3)sc2-c2ccnc(NC[C@H](C)NC(=O)OC)n2)c1Cl` [Example 52], the IC50 stood at 240 pM.

With `CS(=O)(=O)Nc1cc(Cl)cc(-c2nc(C3CC3)sc2-c2ccnc(N)n2)c1Cl` [Example 53], the concentration for half-maximal inhibition (IC50) turned out to be 450 pM.

Consider `CNc1nccc(-c2sc(C3CC3)nc2-c2cc(Cl)cc(NS(C)(=O)=O)c2Cl)n1` [Example 54], for which the concentration for half-maximal inhibition (IC50) is 460 pM.

`COC(=O)N[C@@H](C)CNc1nccc(-c2sc(C3CC3)nc2-c2cc(Cl)cc(NS(C)(=O)=O)c2Cl)n1` [Example 55]: the concentration for half-maximal inhibition (IC50) was found to be 280 pM.

For `CCCS(=O)(=O)Nc1cc(Cl)cc(-c2nc(C3CC3)oc2-c2ccnc(N)n2)c1Cl` [Example 56], the half-inhibitory concentration (IC50) amounted to 22 pM.

`CCCS(=O)(=O)Nc1cc(Cl)cc(-c2nc(C3CC3)oc2-c2ccnc(NC[C@H](C)NC(=O)OC)n2)c1Cl` [Example 57]: the half-inhibitory concentration (IC50) is 560 pM.

`CS(=O)(=O)Nc1cc(Cl)cc(-c2nc(C3CC3)oc2-c2ccnc(N)n2)c1Cl` [Example 58]: the IC50 was found to be 350 pM.

In the case of `CNc1nccc(-c2oc(C3CC3)nc2-c2cc(Cl)cc(NS(C)(=O)=O)c2Cl)n1` [Example 59], the IC50 was found to be 1500 pM.

On to `COC(=O)N[C@@H](C)CNc1nccc(-c2oc(C3CC3)nc2-c2cc(Cl)cc(NS(C)(=O)=O)c2Cl)n1` [Example 60], for which the IC50 came to 460 pM.

On to `CNc1nccc(-c2sc(C(C)(C)C)nc2-c2cc(Cl)cc(NS(C)(=O)=O)c2F)n1` [Example 61], for which the half-inhibitory concentration (IC50) stood at 650 pM.

For `CCCS(=O)(=O)Nc1cc(Cl)cc(-c2nc(C3CC3)oc2-c2ccnc(NC)n2)c1F` [Example 62], the half-maximal inhibitory concentration (IC50) is 280 pM.

Turning to `CCCS(=O)(=O)Nc1cc(Cl)cc(-c2nc(C3CC3)oc2-c2ccnc(N)n2)c1F` [Example 63], the IC50 came out at 44 pM.

As for `CCCS(=O)(=O)Nc1cc(Cl)cc(-c2nc(C3CC3)oc2-c2ccnc(NC[C@H](C)NC(=O)OC)n2)c1F` [Example 64], the IC50 was 280 pM.

On to `CCCS(=O)(=O)Nc1cc(Cl)cc(-c2nc(C3CC3)sc2-c2ccnc(NC[C@H](C)NC(=O)OC)n2)c1F` [Example 65], for which the IC50 came out at 90 pM.

Turning to `CCCS(=O)(=O)Nc1cc(Cl)cc(-c2nc(C3CC3)sc2-c2ccnc(N)n2)c1F` [Example 66], the IC50 worked out at 58 pM.

In general, IC50 refers to the point on the concentration scale where inhibition reaches its midpoint.
